# Source: publication PMC12036875, “Mitochondria-targeting natural product rhein conjugated with dichloroacetate as the dual inhibitor of glycolysis and oxidative phosphorylation to off energize cancer cells and induce ROS storm” (Theranostics, 2025)
# Read-outs that look alike come from different tables or passages of the source.
# How the values were obtained:
# [1] = tested on: 4T1 cells; experiment: RNA sequencing and analysis (DEGs, GSEA); format: cell-based, Mouse; settings: 6.25 μM, 12 h, RNA-seq
# Protocol: To understand the effect of Rhein-DCA conjugate on the energy flow of glycolysis in cancer cells, we performed RNA sequencing analysis on 4T1 cell lines to analyze the genome. After various treatments for 12 h, all samples were clustered via principal component analysis (PCA) (Figure S12). […] Furthermore, the DEGs involved in glycolysis pathway of kyoto encyclopedia of genes and genomes (KEGG) databases were analyzed (Figure 2G). […] But as a pyruvate analogue, DCA led to the inactivation of PDK1 by binding to the pyruvate-binding pocket of PDK1 protein, together with down-regulation of PDK1 gene, thus leading more prominent restraint of glycolysis.
# We next investigated whether the OXPHOS route would be further undermined by Rhein-DCA conjugate when the glycolysis was blocked. […] Thus, it was imperative to simultaneously halt glycolysis and OXPHOS to induce energy obstruction and apoptosis.
# 4T1 cells were seeded in 10 cm culture dishes and cultured until the confluency reached approximately 80%. The cells were treated with PBS, DCA, rhein, and Rhein-DCA conjugate (at a concentration of 6.25 μM) for 12 h. After that, the cells were collected and suspended in TRIzol Reagent for RNA sequencing. All samples were sent to Shanghai Majorbio Bio-pharm Biotechnology Co., Ltd. (Shanghai, P. R. China) for detection. Total RNA was extracted from 4T1 cells and was measured using the nanodrop-2000. The quality of RNA was evaluated by agarose gel electrophoresis and analyzed with Agilent5300. cDNA libraries were constructed according to the Illumina stranded mRNA prep, Ligation (USA) protocol. The DNA was further enriched by PCR amplification and purified by 2% Low Range Ultra Agarose. Clusters were generated by Bridge PCR on the cBot after being quantified by Qubit 4.0, and sequenced with NovaSeq X Plus platform (PE150). The differential expression analysis of various gene expressions was performed using DESeq2. The GO functional enrichment and KEGG pathway analysis were conducted on Goatools and Python scipy software.
# [2] = tested on: tumor-associated macrophages in 4T1 tumors; experiment: Tumor-associated macrophages detection (flow cytometry); format: in vivo, Balb/c mice; settings: primary 4T1 tumors; for M1 macrophages (CD80+ in CD11b+ cells) / M2 macrophages (CD206+ in CD11b+ cells): 20 mg/kg oral, 24 days; for M1 macrophages (CD80+ in CD11b+ cells): vehicle 5.8%; for M2 macrophages (CD206+ in CD11b+ cells): vehicle 36.5%
# Protocol: To further investigate the immunomodulatory effects of the Rhein-DCA conjugate, we analyzed TAMs by flow cytometry, where CD11b and CD80 antibodies were labeled for M1-phenotype macrophages (Figure 7D), CD11b and CD206 antibodies were labeled for M2-phenotype macrophages (Figure 7E).
# The macrophages within the tumor microenvironment of tumor tissues were further analyzed. Tumor tissues were minced into small pieces and then digested in a solution containing 1 mg/mL of collagenase IV, 0.1 mg/mL of hyaluronidase and 0.1 mg/mL of DNAase I at 37 °C for 1.5 h. The supernatants containing single cells were collected by filtering through 200 mesh filters. Cells were obtained by centrifugation and further blocked with anti-CD16/32 (1 μg/100 μL) for 10 min in an ice bath. Thereafter, FITC anti-mouse CD11b (1 μg/100 μL) and PE anti-mouse CD80 (1 μg/100 μL) antibodies were employed to stain the cells in an ice bath for 20 min. After that, the cells were collected and fixed with 4%-paraformaldehyde at room temperature for 20 min, and then stained with APC anti-mouse CD206 antibody (0.5 μg/100 μL, in 1 × Fix/Perm buffer) at room temperature in the dark for 20 min. Finally, cells were analyzed with flow cytometry after being resuspended in 1 × Perm/Wash buffer.
# [3] = tested on: 293T cells; experiment: MTT cytotoxicity assay, normal cells; format: cell-based; settings: Homo sapiens, HEK-293T, read-out: IC50 293T
# Protocol: The cytotoxicity of Rhein-DCA conjugate was performed on various cancer cell lines, including breast cancer (4T1 and MCF-7), cervical cancer (HeLa), and colorectal carcinoma (CT26) via 3-(4,5)-dimethylthiahiazo(-z-y1)-3,5-di-phenytetrazoliumromide (MTT) assay. […] Moreover, the cytotoxicity of these compounds (rhein, DCA, R + D and Rhein-DCA) for normal cells (293T) was lower than that of those tested cancer cells.
# Mouse breast cancer 4T1 cells and Mouse colorectal carcinoma CT26 cells were purchased from Haixing Biosciences Co., Ltd (Jiangsu, P. R. China), and cultured in complete RPMI-1640 medium supplemented with 10% FBS and 1% Penicillin / Streptomycin in a cell incubator (37 °C in 95% air and 5% CO2 atmosphere). Human breast cancer MCF-7 cells, Human cervical carcinoma HeLa cells and Human embryonic kidney 293T cells were obtained from the China Center for Type Culture Collection (CCTCC). MCF-7 and HeLa cells were cultured in DMEM medium containing 10% FBS and 1% Penicillin / Streptomycin and then cultured in a cell incubator (37 °C in 95% air and 5% CO2 atmosphere).
# The cytotoxicity of rhein, DCA, the mixture of rhein and DCA (R + D) and Rhein-DCA conjugate was evaluated on HeLa, MCF-7, CT26, 4T1 and 293T cell lines by MTT assay. Cells were seeded in 96-well plates at a density of 3 × 10^3 cells per well in the corresponding complete culture medium and cultured for 24 h. Then cells were incubated with 200 μL fresh medium containing the respective desired concentrations of rhein, DCA, R + D (with the concentrations being 100, 66.7, 44.4, 29.6, 19.8, 13.2, 8.8, 5.9, 3.9, 2.6, 1.7 and 1.2 μM, respectively) and Rhein-DCA conjugate (with the concentrations being 29.6, 19.8, 13.2, 8.8, 5.9, 3.9, 2.6, 1.7, 1.2, 0.8, 0.5 and 0.3 μM, respectively). After 72 h of incubation, 20 μL of MTT solution (5 mg/mL) was added to each well and the plates were cultured for another 4 h. The medium was carefully removed, and 110 μL of DMSO was added into per well to dissolve the formazan. The absorption densities at 590 nm were recorded with microplate reader. […]
# [4] = 72 h treatment, MTT, normal cells, mean ± S.D., n = 3
smiles,measurement,setting,value
"O=C(O)C(Cl)Cl [DCA, Dichloroacetate]",PDK1 gene expression,[1],down-regulated
same,M1 macrophages (CD80+ in CD11b+ cells),[2],7.7%
same,M2 macrophages (CD206+ in CD11b+ cells),[2],13.6%
same,IC50,[3]; 72 h,> 100 µM
"O=C(O)c1cc(O)c2c(c1)C(=O)c1cccc(O)c1C2=O [Rhein, 4,5-dihydroxyanthraquinone-2-carboxylic acid]",PDK1 gene expression,[1],down-regulation
same,M1 macrophages (CD80+ in CD11b+ cells),[2],6.0%
same,M2 macrophages (CD206+ in CD11b+ cells),[2],16.6%
same,IC50,[3]; [4],126 ± 13.6 µM
O=C(OCCOC(=O)C(Cl)Cl)c1cc(O)c2c(c1)C(=O)c1cccc(O)c1C2=O [Rhein-DCA],PDK1 gene expression,[1],significant down-regulation
same,M1 macrophages increase vs vehicle,[2],1.8 fold
same,M2 macrophages reduction vs vehicle,[2],9.4 fold
same,M1 macrophages (CD80+ in CD11b+ cells),[2],10.3%
same,M2 macrophages (CD206+ in CD11b+ cells),[2],3.9%
same,IC50,[3]; [4],11.7 µM
